On series [1], the source says: (§1) A flat sheet microporous polypropylene membrane (Celgard 2400, 38% porosity, 0.05 micron average pore size, 25 micron thick) was wet with polypropylene glycol (PPG) MW 4000 obtained from the Dow Chemical Company by putting a few drops of PPG on the membrane sheet and spreading it out. […] The excess PPG was wiped off and the membrane with immobilized PPG was ready for use. […] The same wetting procedure can be used for hollow fiber membranes. In a module form, the fibers can be wet by pumping PPG slowly through the lumens of the fibers. The excess PPG left in the fibers can thereafter be removed by either blowing air or passing water through the tube side of the fibers.
A flat sheet immobilized liquid membrane prepared according to Example 1 was placed between the two compartments of a cell. Surface area of the membrane was 8 cm^2. One cell compartment contained an aqueous waste solution containing para-nitrophenol (PNP) at a concentration of 4000 to 5000 mg/L and 20 wt % KCl. The other compartment contained 0.1N NaOH as an aqueous strip solution. Both solutions were circulated by pumps. Total volume of liquid on each side of the membrane was 100 ml. The system was at room temperature. PNP levels in both compartments were measured periodically using a spectrophotometric method.

A short description of series [2]: Partition coefficient between polyalkylene glycol (PPG) and water. The source says:
*Kp = Acid concentration in PPG .div. Acid Concentration in H2 O at […]

The conditions of series [3]: known octanol/water system; cited from earlier work.
This is another data set of the same source.
Series [4] is described as follows: Stability/integrity of supported liquid membrane. It counts as physicochemical.
From the text: as §1
The process of Example 2 was repeated but with octanol, a typical organic solvent with high affinity for p-nitrophenol, as the liquid membrane.

Series [5] can be described thus: Transport across hollow fiber supported liquid membrane (Examples 5 and 6). It counts as physicochemical. The note with it: Celgard X20 400 hollow fibers; after 3 hours (Example 5). An excerpt: Celgard X20 400 hollow fibers (40% porosity, 0.065 micron pore size, internal diameter 400 microns, outer diameter 460 microns) were potted into a module containing 54 fibers that were 18 cm long. The total membrane area was 120 cm^2. PPG MW 4000 was pumped through the lumens of the fibers to wet them. Water was then pumped through to remove excess PPG. The module having PPG immobilized in the fiber walls was then used to remove PNP from an aqueous solution containing approximately 4000 to 5000 mg/L PNP and 20 wt % KCl. The aqueous stripping solution was 0.1N NaOH. The set up was similar to that used in Example 2. The initial rate of PNP transport across the hollow fiber membrane was about 4 mg/hr-cm^2 membrane area. After 3 hours of operation PNP concentration in the stripping side went up to 4400 mg/L and that in the feed side dropped to 45 mg/L.
Using a procedure similar to that of Example 5 but using polysulfone hollow fibers (Permea, St. Louis) as the membrane support, selective extraction of PNP from an aqueous waste solution was examined. Ultrafiltration polysulfone hollow fibers (18 cm long, MW cutoff 160,000, OD 1150 microns, ID 870 microns) were potted into a module containing 10 fibers that were 17.6 cm long. The effective membrane area was about 48 cm^2. The initial rate of transport was about 1 mg PNP/hr-cm^2 membrane area.

For series [6] the following is noted: 65° C. (Example 26). The procedure: Celgard 2500 (flat sheet microporous polypropylene membrane) was wetted with PPG-4000 and sandwiched between two compartments of a membrane cell as described in Example 2. One compartment was filled with a aqueous solution containing 5000 mg/L butanol. Air was swept in the other compartment to remove butanol diffusing through the membrane, thus creating driving force for further transport. The system was operated at 65° C.

The mark [7] stands for this setting: 5 wt % acid, 20 wt % KCl, strip 0.1N NaOH, room temperature (Table 1).
[8] abbreviates: PPG in Celgard 2400, strip 0.1N NaOH, room temperature (Table 3).
Setting [9] is: PPG MW about 4000 in CELGARD 2400, 20 wt % NaCl.
[10] abbreviates: Celgard 2402, overnight (Example 4).
The mark [11] stands for this setting: Celgard 2500, overnight (Example 3).
Where [12] appears, read: overnight, feed pH 5.4, 20 wt. % KCl (Example 29).
[13] abbreviates: 30 wt. % Pluronic L-81 in PPG-4000 (Example 23).

Where two headings read alike, the source gives them in different places. Where only a bound is given, the exact number is not on record here.

For `CC(=O)O` [Acetic Acid (C2), Acetic Acid], the “Initial Rate” value in series [1] (setting [7]) worked out at 1.6 mg/hr-cm^2.
Turning to `C=CC(=O)O` [Acrylic Acid], the “K PPG-4000/Water” value in series [2] amounted to 5. Moreover, the “K Octanol/Water” value in series [3] is 1.35.
On to `CCCC(=O)O` [Butyric Acid (C4), Butyric Acid], for which the Permeability (not told) is 42 ×10⁻⁶ cm/s.
For the compound `CCCCCC(=O)O` [Caproic Acid (C6), Caproic Acid], the “Partition Coeff. (Kp)” value in series [2] was 83. The “initial rate of caproic acid transport relative to PPG membrane” value in series [1] (carbamate-functional liquid membrane drawing 12 (Example 2d)) is recorded as “about the same as with PPF-4000”. In addition, in series [1] (carbamate-functional liquid membrane drawing 12, after 23 hours, initial 1800 ppm (Example 2d)), the “caproic acid level in waste solution” value is listed as 13 ppm. Moreover, under setting [8], the Permeability turned out to be 400 ×10⁻⁶ cm/s.
As to `O=CO` [Formic Acid (C1), Formic Acid], the “Partition Coeff. (Kp)” value in series [2] (acid concentration in PPG ÷ acid concentration in H2O at equilibrium) is reported as 0.45. Moreover, the “Initial Rate” value in series [1] is on record as 1.0 mg/hr-cm^2. Under setting [8], the Permeability is 5.5 ×10⁻⁶ cm/s. Also, the Rate reads like this: (pH 1.6) 1.0; (pH 5) 0.026.
As to `[Cl-].[K+]` [KCl], the “chloride concentration on waste side” value in series [1] (Example 2) was “over 100 g/L”. In series [1] (Example 2, overnight, measure of KCl transport), the “chloride content in caustic strip solution” value came to 0.049 g/L.
In the case of `[Cl-].[Na+]` [NaCl], in series [4] (setting [9]), the “salt passage through liquid membrane” value is reported as “essentially no salt to pass through”.
For the compound `O=[N+]([O-])c1ccc(O)cc1` [PNP, para-nitrophenol], in series [2], the “K PPG-4000/Water” value is listed as 300. Also, the “PNP concentration in feed side” value in series [5] amounted to 45 mg/L; in series [1] (setting [10]) it was 10 mg/L; in series [1] (setting [11]), 5 mg/L. The “PNP concentration in stripping side” value in series [5] was 4400 mg/L; in series [1] (setting [10]), 4900 mg/L; in series [1] (setting [11]), 4430 mg/L. In addition, the “separation factor for PNP over KCl” value in series [1] (Example 2) was “at least 2000”. Besides, the “PNP concentration difference caustic side vs waste side” value in series [1] (Example 2, overnight) is recorded as “over 1000 times”. In addition, in series [1] (Example 2, overnight), the “PNP concentration in caustic side” value is reported as “about 3800 mg/L”. For the same compound, the “PNP concentration in waste side” value in series [1] (Example 2, overnight, initial 4000 to 5000 mg/L) is listed as “about 3 mg/L”. For the same compound, the “PNP level in waste solution” value is on record as 10 ppm in series [1] (Igepal CO-210 liquid membrane, after 24 hours, initial 4397 ppm (Example 2f)); 25 ppm in series [1] (carbamate-functional liquid membrane drawing 12, after 5.5 hours, initial 4300 ppm (Example 2c)); 5 ppm in series [1] (carbamate-functional liquid membrane drawing 12, overnight (Example 2c)); 4 ppm in series [1] (castor oil liquid membrane, after 96 hours, initial 4272 ppm (Example 2e)); 192 ppm in series [1] (strip 50 wt. % PEG-200, after about 9 hours, initial 4449 ppm (Example 2b)); 12 ppm in series [1] (strip PEG-200, after about 8 hours, initial 4700 ppm (Example 2a)). For the same compound, the “PNP level in waste solution” value in series [1] (strip PEG-200, after two days, initial 4700 ppm (Example 2a)) was 0.6 ppm. Besides, the “ratio of PNP concentration caustic side over waste side” value in series [1] (PBG MW 2000, overnight (Example 20)) is reported as “about 1300”. Further, in series [1] (setting [12]), the “PNP removal from the feed solution” value is given as “about 99%”. Moreover, the “PNP ratio (concentration of strip side to feed side)” value in series [1] (polybutylene glycol MW approximately 5000, overnight (Example 21)) was 120.
In the case of `Oc1ccccc1` [Phenol], the “K PPG-4000/Water” value in series [2] was 150. In series [1], the “concentration in the feed” value was “about 5 mg/L” and the “concentration in the stripping solution” value is “about 5050 mg/L”.
With `CCC(=O)O` [Propionic Acid (C3), Propionic Acid], in series [1] (setting [7]), the “Initial Rate” value came to 5.4 mg/hr-cm^2. For the same compound, the Permeability (not told) was 33 ×10⁻⁶ cm/s.
Take `CCCCC(=O)O` [Valeric Acid (C5), Valeric Acid]: the “Partition Coeff. (Kp)” value in series [2] was 24.6. Besides, the Permeability (not told) amounted to 160 ×10⁻⁶ cm/s.
As to `N.N.O=S(=O)(O)O` [ammonium sulfate], the “ammonium sulfate detected in the stripping solution” value in series [1] was “no ammonium sulfate was detected”.
In the case of `O=C(O)c1ccccc1` [benzoic acid], the “benzoic acid passage through membrane” value in series [1] (feed pH 5.4 (Example 29)) is “virtually blocked by the membrane”. Moreover, the “remaining in feed / transported” value in series [1] (overnight, feed pH 2.5 (Example 30)) is given as “virtually gone from the feed”. Also, the “benzoic acid detected in aqueous strip solution” value in series [1] (setting [12]) is < 1 % of feed. The “benzoic acid level in strip solution” value in series [1] (overnight, from hydrolysis of ethyl benzoate (Example 33)) was “about 420 mg/L”.
As to `CCCCO` [butanol], the “initial rate of butanol removal” value in series [6] (PPG-4000 in Celgard 2500, air sweep) is reported as “about 7 mg/hr-cm^2”. For the same compound, the “butanol concentration in the aqueous solution” value in series [6] (after about 5 hr, initial 5000 mg/L) is given as “about 400 mg/L”.
Consider `CCOC(=O)c1ccccc1` [ethyl benzoate], for which, in series [1] (PPG membrane, feed pH 7.1, strip 0.1N NaOH, 23° C. (Example 33)), the “permeability of ethyl benzoate through the membrane” value is “about 9×10^-4 cm/sec”. Also, the “ethyl benzoate concentration in the feed side” value in series [1] (overnight, initial 500 mg/L (Example 33)) is reported as 1 mg/L.
Regarding `N#C/C=C/C#N` [fumaronitrile], the “initial rate of fumaronitrile transport” value in series [1] is on record as “about 0.5 mg/hr-cm^2”.
For `O=C1C=CC(=O)N1` [maleimide], in series [1] (setting [13]), the “change of initial rate of maleimide transport vs Example 22” value is on record as “more than doubled” and the “initial rate of maleimide transport” value turned out to be 2.5 mg/hr-cm^2. Further, in series [1] (PPG-4000, 7,000 mg/L maleimide, 40 wt. % ammonium sulfate (Example 22)), the “initial rate of maleimide transport” value was “about 1.2 mg/hr-cm^2”.
Turning to `CCCCCCCCO` [octanol, reference compound], the “time to breakdown of immobilized liquid membrane” value in series [4] (octanol liquid membrane in operation (Example 25)) was “about 10 minutes”.
Take `Nc1ccc([N+](=O)[O-])cc1` [p-nitroaniline]: the “initial rate of PNA transport” value in series [1] (feed pH 9, ~500 mg/L, strip 0.1N nitric acid (Example 8)) is on record as “about 1.5 mg/hr-cm^2”. In series [1] (overnight (Example 8)), the “PNA level in the feed” value is reported as 70 mg/L and the “PNA level in the stripping solution” value turned out to be 450 mg/L.
Turning to `O` [water], in series [4] (setting [9]), the “water movement (diffusion) through liquid membrane” value is “very little water movement”.
